Experimental data taken from patent US4172891A, “Cephalosporins” (Takeda Chemical Industries, Inc., priority 1976, dated 1979).
≈ marks a conversion by molar mass, not a printed value. Like-named read-outs stand apart in the source and are kept apart here.

Tests used:
Escherichia coli O-111 = experiment: Comparative protection test on infected mice; type: in vivo; conditions: O111, sc, 168 h; male ICR/SLC mice infected intraperitoneally with Escherichia coli O-111; single subcutaneous dose immediately after challenge; 7 days observation
Text: (§1) Following each example is a tabulation of the minimal inhibitory concentrations (MIC) of the present compound [I] obtained in accordance with the particular example against several representative gram-negative bacteria and the corresponding concentrations of cephaloridine [7-(2-thienylacetamido)-3-(1-pyridyl)methyl-3-cephem-4-carboxylic acid betaine] and cefazolin [sodium 7-(1H-tetrazol-1-yl)acetamido-3-(2-methyl-1,3,4-thiadiazol-5-yl)thiomethyl-3-cephem-4-carboxylate], both of which are typical cephalosporins commercially available and clinically accepted nowadays [The New England Journal of Medicine 294, 24 (1976) and Journal of Pharmaceutical Science 64, 1899 (1975)]. There are also shown the effective doses of the typical compounds of this invention on the mice infected with Escherichia coli in comparison with that of cephaloridine.
Comparative protection tests of the compounds of this
invention and cephaloridine on infected mice
*Test animals: male mice (ICR/SLC) 5 mice per group per single dose
Infection: intraperitoneally with Escherichia coli O-111
Administration: a single subcutaneous dose immediately after challenge
Observation period: 7 days

E. coli T-7 = experiment: Minimum Inhibitory Concentration, agar dilution, E. coli T-7; type: cell-based; conditions: Escherichia coli
Text: (§2) […]. | Minimum Inhibitory Concentrations (mcg/ml, agar dilution)

P. rettgeri GN 4733 = experiment: Minimum Inhibitory Concentration, agar dilution, P. rettgeri GN 4733; type: cell-based, Proteus rettgeri; conditions: Providencia rettgeri
Text: as §2

K. pneumoniae GN 3835 = experiment: Minimum Inhibitory Concentration, agar dilution, K. pneumoniae GN 3835; type: cell-based; conditions: Klebsiella pneumoniae
Text: as §2

E. coli O-111 = experiment: Minimum Inhibitory Concentration, agar dilution, E. coli O-111; type: cell-based; conditions: Escherichia coli, O111; E. coli O-111; agar dilution; read-out: Minimum Inhibitory Concentration
Text: as §1
Minimum Inhibitory Concentrations (mcg/ml, agar dilution)

E. coli NIHJ = experiment: Minimum Inhibitory Concentration, agar dilution, E. coli NIHJ; type: cell-based; conditions: Escherichia coli, read-out: Minimum Inhibitory Concentration
Text: as §2

P. morganii IFO 3168 = experiment: Minimum Inhibitory Concentration, agar dilution, P. morganii IFO 3168; type: cell-based, Proteus morganii; conditions: Morganella morganii
Text: as §2

K. pneumoniae DT = experiment: Minimum Inhibitory Concentration, agar dilution, K. pneumoniae DT; type: cell-based; conditions: Klebsiella pneumoniae, read-out: Minimum Inhibitory Concentration
Text: as §2

P. vulgaris IFO 3988 = experiment: Minimum Inhibitory Concentration, agar dilution, P. vulgaris IFO 3988; type: cell-based; conditions: Proteus vulgaris
Text: as §2

Cit. freundii GN 99 = experiment: Minimum Inhibitory Concentration, agar dilution, Cit. freundii GN 99; type: cell-based; conditions: Citrobacter freundii
Text: as §2

Ent. cloacae IFO 12937 = experiment: Minimum Inhibitory Concentration, agar dilution, Ent. cloacae IFO 12937; type: cell-based; conditions: Enterobacter cloacae
P. rettgeri 8(TNO 336) = experiment: Minimum Inhibitory Concentration, agar dilution, P. rettgeri 8(TNO 336); type: cell-based, Proteus rettgeri; conditions: Providencia rettgeri
Text: as §2

P. mirabilis GN 4359 = experiment: Minimum Inhibitory Concentration, agar dilution, P. mirabilis GN 4359; type: cell-based; conditions: Proteus mirabilis
Text: as §2

Cit. freundii GN 1706 = experiment: Minimum Inhibitory Concentration, agar dilution, Cit. freundii GN 1706; type: cell-based; conditions: Citrobacter freundii
Text: as §2

[1] = T7, E. coli T-7, agar dilution, read-out: Minimum Inhibitory Concentration
[2] = GN4733, P. rettgeri GN 4733, agar dilution, read-out: Minimum Inhibitory Concentration
[3] = GN3835, K. pneumoniae GN 3835, agar dilution, read-out: Minimum Inhibitory Concentration
[4] = IFO3168, P. morganii IFO 3168, agar dilution, read-out: Minimum Inhibitory Concentration
[5] = K. pneumoniae DT, agar dilution
[6] = IFO3988, P. vulgaris IFO 3988, agar dilution, read-out: Minimum Inhibitory Concentration
[7] = GN99, Cit. freundii GN 99, agar dilution, read-out: Minimum Inhibitory Concentration
[8] = IFO12937, Ent. cloacae IFO 12937, agar dilution, read-out: Minimum Inhibitory Concentration
[9] = P. rettgeri 8(TNO 336), read-out: Minimum Inhibitory Concentration
[10] = GN4359, P. mirabilis GN 4359, agar dilution, read-out: Minimum Inhibitory Concentration
[11] = GN1706, Cit. freundii GN 1706, agar dilution, read-out: Minimum Inhibitory Concentration
[12] = GN4359, read-out: Minimum Inhibitory Concentration

## N=c1scc(CC(=O)NC2C(=O)N3C(C(=O)O)=C(CSc4c[nH]nn4)CSC23)n1O (stereo not drawn) [Example 7, sodium 7-[2-(2-imino-3-hydroxy-4-thiazolin-4-yl)acetamido]-3-(1H-1,2,3-triazol-4-yl)thiomethyl-3-cephem-4-carboxylate]
Escherichia coli O-111
  ED50: 0.056 mg/kg
E. coli T-7; [1]
  MIC: 3.13 µg/mL
P. rettgeri GN 4733; [2]
  MIC: 0.78 µg/mL
K. pneumoniae GN 3835; [3]
  MIC: 0.1 µg/mL
E. coli O-111
  MIC: 0.05 µg/mL
E. coli NIHJ; E. coli NIHJ, agar dilution
  MIC: 0.78 µg/mL
P. morganii IFO 3168; [4]
  MIC: 0.39 µg/mL
K. pneumoniae DT; [5]
  MIC: 0.1 µg/mL
P. vulgaris IFO 3988; [6]
  MIC: 0.2 µg/mL
Cit. freundii GN 99; [7]
  MIC: 1.56 µg/mL
Ent. cloacae IFO 12937; [8]
  MIC: > 100 µg/mL
P. rettgeri 8(TNO 336); [9]
  MIC: ≤ 0.03 µg/mL
P. mirabilis GN 4359; [10]
  MIC: 0.1 µg/mL
Cit. freundii GN 1706; [11]
  MIC: 12.5 µg/mL

## Cc1nnc(SCC2=C(C(=O)O)N3C(=O)C(NC(=O)Cc4csc(=N)n4O)C3SC2)o1 (stereo not drawn) [Example 6, sodium 7-[2-(2-imino-3-hydroxy-4-thiazolin-4-yl)acetamido]-3-(5-methyl-1,3,4-oxadiazol-2-yl) thiomethyl-3-cephem-4-carboxylate]
Escherichia coli O-111
  ED50: 0.071 mg/kg
E. coli T-7; [1]
  MIC: 3.13 µg/mL
P. rettgeri GN 4733; [2]
  MIC: 0.1 µg/mL
K. pneumoniae GN 3835; [3]
  MIC: 0.78 µg/mL
E. coli O-111
  MIC: 0.05 µg/mL
E. coli NIHJ; E. coli NIHJ, agar dilution
  MIC: 0.1 µg/mL
P. morganii IFO 3168; [4]
  MIC: 0.1 µg/mL
K. pneumoniae DT; [5]
  MIC: 0.1 µg/mL
P. vulgaris IFO 3988; [6]
  MIC: 0.2 µg/mL
Cit. freundii GN 99; [7]
  MIC: 0.78 µg/mL
Ent. cloacae IFO 12937; [8]
  MIC: 50 µg/mL
P. rettgeri 8(TNO 336); [9]
  MIC: ≤ 0.012 µg/mL
P. mirabilis GN 4359; [10]
  MIC: 0.1 µg/mL
Cit. freundii GN 1706; [11]
  MIC: 1.56 µg/mL

## CC(=O)OCC1=C(C(=O)O)N2C(=O)C(NC(=O)Cc3csc(=N)n3O)C2SC1 (stereo not drawn) [Example 1, sodium 7-[2-(2-imino-3-hydroxy-4-thiazolin-4-yl)acetamido]-3-acetoxymethyl-3-cephem-4-carboxylate]
Escherichia coli O-111
  ED50: 0.075 mg/kg
E. coli T-7; [1]
  MIC: 3.13 µg/mL
P. rettgeri GN 4733; [2]
  MIC: 0.1 µg/mL
K. pneumoniae GN 3835; [3]
  MIC: 0.2 µg/mL
E. coli O-111
  MIC: 0.1 µg/mL
E. coli NIHJ; E. coli NIHJ, agar dilution
  MIC: 0.2 µg/mL
P. morganii IFO 3168; [4]
  MIC: 0.39 µg/mL
K. pneumoniae DT; [5]
  MIC: 0.1 µg/mL
P. vulgaris IFO 3988; [6]
  MIC: 0.39 µg/mL
Cit. freundii GN 99; [7]
  MIC: 1.56 µg/mL
Ent. cloacae IFO 12937; [8]
  MIC: 12.5 µg/mL
P. rettgeri 8(TNO 336); [9]
  MIC: ≤ 0.03 µg/mL
P. mirabilis GN 4359; [10]
  MIC: 0.2 µg/mL
Cit. freundii GN 1706; [11]
  MIC: 3.13 µg/mL

## N=c1scc(CC(=O)NC2C(=O)N3C(C(=O)[O-])=C(C[n+]4ccc(C(N)=O)cc4)CSC23)n1O (stereo not drawn) [Example 10, 7-[2-(2-imino-3-hydroxy-4-thiazolin-4-yl)acetamido]-3-(4-carbamoylpyridinium)methyl-3-cephem-4-carboxylic acid betain]
Escherichia coli O-111
  ED50: 0.089 mg/kg
E. coli T-7; [1]
  MIC: 25 µg/mL (≈ 51 µM)
P. rettgeri GN 4733; [2]
  MIC: ≤ 0.2 µg/mL
K. pneumoniae GN 3835; [3]
  MIC: 1.56 µg/mL (≈ 3.18 µM)
E. coli O-111
  MIC: 0.39 µg/mL (≈ 0.795 µM)
E. coli NIHJ; E. coli NIHJ, agar dilution
  MIC: 1.56 µg/mL (≈ 3.18 µM)
P. morganii IFO 3168; [4]
  MIC: 3.13 µg/mL (≈ 6.38 µM)
K. pneumoniae DT; [5]
  MIC: 0.78 µg/mL (≈ 1.59 µM)
P. vulgaris IFO 3988; [6]
  MIC: 0.78 µg/mL (≈ 1.59 µM)
Cit. freundii GN 99; [7]
  MIC: 1.56 µg/mL (≈ 3.18 µM)
Ent. cloacae IFO 12937; [8]
  MIC: 25 µg/mL (≈ 51 µM)
P. rettgeri 8(TNO 336); [9]
  MIC: ≤ 0.2 µg/mL
P. mirabilis GN 4359; [10]
  MIC: 0.78 µg/mL (≈ 1.59 µM)
Cit. freundii GN 1706; [11]
  MIC: 12.5 µg/mL (≈ 25.5 µM)

## N=c1scc(CC(=O)NC2C(=O)N3C(C(=O)[O-])=C(COC(N)=O)CS[C@H]23)n1O.[Na+] (stereo partly drawn) [Example 13, sodium 7-[2-(2-imino-3-hydroxy-4-thiazolin-4-yl)acetamido]-3-(carbamoyloxymethyl)-3-cephem-4-carboxylate]
Escherichia coli O-111
  ED50: 0.084 mg/kg
E. coli T-7; T7, read-out: Minimum Inhibitory Concentration
  MIC: 1.56 µg/mL
P. rettgeri GN 4733; GN4733, read-out: Minimum Inhibitory Concentration
  MIC: 0.2 µg/mL
K. pneumoniae GN 3835; GN3835, read-out: Minimum Inhibitory Concentration
  MIC: 0.2 µg/mL
E. coli O-111
  MIC: 0.1 µg/mL
E. coli NIHJ
  MIC: 0.2 µg/mL
P. morganii IFO 3168; IFO3168, read-out: Minimum Inhibitory Concentration
  MIC: 0.78 µg/mL
K. pneumoniae DT
  MIC: 0.2 µg/mL
P. vulgaris IFO 3988; IFO3988, read-out: Minimum Inhibitory Concentration
  MIC: 0.39 µg/mL
Cit. freundii GN 99; GN99, read-out: Minimum Inhibitory Concentration
  MIC: 0.78 µg/mL
Ent. cloacae IFO 12937; IFO12937, read-out: Minimum Inhibitory Concentration
  MIC: 50 µg/mL
P. rettgeri 8(TNO 336); read-out: Minimum Inhibitory Concentration, P. rettgeri 8(TNO 336)
  MIC: ≤ 0.012 µg/mL
P. mirabilis GN 4359; [12]
  MIC: 0.2 µg/mL
Cit. freundii GN 1706; GN1706, read-out: Minimum Inhibitory Concentration
  MIC: 3.13 µg/mL

## O=C(Cc1cccs1)N[C@@H]1C(=O)N2C(C(=O)[O-])=C(C[n+]3ccccc3)CS[C@H]12 [Cephaloridine, 7-(2-thienylacetamido)-3-(1-pyridyl)methyl-3-cephem-4-carboxylic acid betaine, reference compound]
Escherichia coli O-111
  ED50: 2.6 mg/kg
E. coli T-7; [1]
  MIC: > 100 µg/mL
P. rettgeri GN 4733; [2]
  MIC: > 100 µg/mL
K. pneumoniae GN 3835; [3]
  MIC: 50 µg/mL (≈ 120 µM)
E. coli O-111
  MIC: 3.13 µg/mL (≈ 7.53 µM)
E. coli NIHJ; E. coli NIHJ, agar dilution
  MIC: 6.25 µg/mL (≈ 15 µM)
P. morganii IFO 3168; [4]
  MIC: > 100 µg/mL
K. pneumoniae DT
  MIC: 3.13 µg/mL (≈ 7.53 µM)
P. vulgaris IFO 3988; [6]
  MIC: 6.25 µg/mL (≈ 15 µM)
Cit. freundii GN 99; [7]
  MIC: 50 µg/mL (≈ 120 µM)
Ent. cloacae IFO 12937; [8]
  MIC: > 100 µg/mL
P. rettgeri 8(TNO 336); [9]
  MIC: 1.56 µg/mL (≈ 3.75 µM)
P. mirabilis GN 4359; [12]
  MIC: 3.13 µg/mL (≈ 7.53 µM)
Cit. freundii GN 1706; [11]
  MIC: > 100 µg/mL

## Cn1nnnc1SCC1=C(C(=O)O)N2C(=O)C(NC(=O)Cc3csc(=N)n3O)[C@H]2SC1 (stereo partly drawn) [Example 9, 7-[2-(2-imino-3-hydroxy-4-thiazolin-4-yl)acetamido]-3-(1-methyltetrazol-5-yl)thiomethyl-3-cephem-4-carboxylic acid]
Escherichia coli O-111
  ED50: 0.04 mg/kg

## Cc1nnc(SCC2=C(C(=O)O)N3C(=O)C(NC(=O)Cc4csc(=N)n4O)C3SC2)s1 (stereo not drawn) [Example 4, sodium 7-[2-(2-imino-3-hydroxy-4-thiazolin-4-yl)acetamido]-3-(2-methyl-1,3,4-thiadiazol-5-yl)thiomethyl-3-cephem-4-carboxylate]
Escherichia coli O-111
  ED50: 0.019 mg/kg
E. coli T-7; [1]
  MIC: 1.56 µg/mL
P. rettgeri GN 4733; [2]
  MIC: 0.1 µg/mL
K. pneumoniae GN 3835; [3]
  MIC: 0.2 µg/mL
E. coli O-111
  MIC: 0.024 µg/mL
E. coli NIHJ; E. coli NIHJ, agar dilution
  MIC: 0.05 µg/mL
P. morganii IFO 3168; [4]
  MIC: 0.1 µg/mL
K. pneumoniae DT; [5]
  MIC: 0.05 µg/mL
P. vulgaris IFO 3988; [6]
  MIC: 0.1 µg/mL
Cit. freundii GN 99; [7]
  MIC: 0.78 µg/mL
Ent. cloacae IFO 12937; [8]
  MIC: 50 µg/mL
P. rettgeri 8(TNO 336); [9]
  MIC: 0.012 µg/mL
P. mirabilis GN 4359; [10]
  MIC: 0.05 µg/mL
Cit. freundii GN 1706; [11]
  MIC: 1.56 µg/mL
